Experimental data published in PubChem BioAssay (NCI).
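Method: 48-hour compound exposure of cells in 96-well plates, five concentrations, linear interpolation of endpoints. GI50 marks 50% less growth. The concentration for full growth arrest is given as TGI.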

Assays:
Assay in all cases: NCI anticancer screen, dose series, 48 h
A498 renal = test system: A498 renal
COLO 205 colon = test system: COLO 205 colon
HCT-15 colon = test system: HCT-15 colon
K-562 leukemia = test system: K-562 leukemia
MDA-MB-231 breast = test system: MDA-MB-231 breast
NCI-H522 lung = test system: NCI-H522 lung
PC-3 prostate = test system: PC-3 prostate
SK-MEL-2 melanoma = test system: SK-MEL-2 melanoma
SNB-75 CNS = test system: SNB-75 CNS
T-47D breast = test system: T-47D breast

SMILES: Cn1cnc(N)c(N=O)c1=O
- TGI (A498 renal): > 10 µM
- TGI (COLO 205 colon): > 10 µM
- TGI (HCT-15 colon): > 10 µM
- TGI (K-562 leukemia): > 10 µM
- TGI (MDA-MB-231 breast): > 10 µM
- TGI (NCI-H522 lung): > 10 µM
- TGI (PC-3 prostate): > 10 µM
- TGI (SK-MEL-2 melanoma): > 10 µM
- TGI (SNB-75 CNS): > 10 µM
- TGI (T-47D breast): > 10 µM

SMILES: Fc1ccc(-c2ncn(C3CCNCC3)c2-c2ccnc(Oc3ccc4c(c3)OCO4)n2)cc1
- GI50 (A498 renal): 16 µM
- TGI (A498 renal): > 25 µM
- GI50 (COLO 205 colon): 9.25 µM
- TGI (COLO 205 colon): > 25 µM
- GI50 (HCT-15 colon): 21.1 µM
- TGI (HCT-15 colon): > 25 µM
- GI50 (K-562 leukemia): > 23.1 µM
- TGI (K-562 leukemia): > 25 µM
- GI50 (MDA-MB-231 breast): 10.5 µM
- TGI (MDA-MB-231 breast): > 25 µM
- GI50 (NCI-H522 lung): > 25000 nM
- TGI (NCI-H522 lung): > 25 µM
- GI50 (PC-3 prostate): > 25 µM
- TGI (PC-3 prostate): > 25 µM
- GI50 (SK-MEL-2 melanoma): > 25000 nM
- TGI (SK-MEL-2 melanoma): > 25 µM
- GI50 (SNB-75 CNS): > 16.1 µM
- TGI (SNB-75 CNS): > 25 µM
- GI50 (T-47D breast): 12700 nM
- TGI (T-47D breast): > 25 µM

SMILES: c1ccc(-c2nn3c(c2-c2ccnc4cc(OCCN5CCOCC5)ccc24)CCC3)nc1
- GI50 (A498 renal): > 100 µM
- TGI (A498 renal): > 100 µM
- GI50 (COLO 205 colon): 41.6 µM
- TGI (COLO 205 colon): > 100 µM
- GI50 (HCT-15 colon): 31.5 µM
- TGI (HCT-15 colon): > 100 µM
- GI50 (K-562 leukemia): 30.3 µM
- TGI (K-562 leukemia): > 100 µM
- GI50 (MDA-MB-231 breast): > 100 µM
- TGI (MDA-MB-231 breast): > 100 µM
- GI50 (NCI-H522 lung): 44800 nM
- TGI (NCI-H522 lung): > 100 µM
- GI50 (PC-3 prostate): 98.8 µM
- TGI (PC-3 prostate): > 100 µM
- GI50 (SK-MEL-2 melanoma): > 100000 nM
- TGI (SK-MEL-2 melanoma): > 100 µM
- GI50 (SNB-75 CNS): 59 µM
- TGI (SNB-75 CNS): > 100 µM
- GI50 (T-47D breast): > 100000 nM
- TGI (T-47D breast): > 100 µM

SMILES: O=[N+]([O-])c1cc[n+]([O-])c2ccccc12
- GI50 (A498 renal): 0.176 µM
- TGI (A498 renal): 0.471 µM
- GI50 (COLO 205 colon): 0.153 µM
- TGI (COLO 205 colon): 0.488 µM
- GI50 (HCT-15 colon): 0.279 µM
- TGI (HCT-15 colon): 1.42 µM
- GI50 (K-562 leukemia): 0.26 µM
- TGI (K-562 leukemia): 2.07 µM
- GI50 (MDA-MB-231 breast): 0.282 µM
- TGI (MDA-MB-231 breast): 1.48 µM
- GI50 (NCI-H522 lung): 214 nM
- TGI (NCI-H522 lung): 0.754 µM
- GI50 (PC-3 prostate): 0.222 µM
- TGI (PC-3 prostate): 2.36 µM
- GI50 (SK-MEL-2 melanoma): 169 nM
- TGI (SK-MEL-2 melanoma): 0.377 µM
- GI50 (SNB-75 CNS): 0.176 µM
- TGI (SNB-75 CNS): 0.465 µM
- GI50 (T-47D breast): 321 nM
- TGI (T-47D breast): 4.25 µM

SMILES: [2H]C([2H])([2H])NC(=O)c1nnc(NC(=O)C2CC2)cc1Nc1cccc(-c2ncn(C)n2)c1OC
- GI50 (A498 renal): 4.12 µM
- TGI (A498 renal): > 100 µM
- GI50 (COLO 205 colon): 97.1 µM
- TGI (COLO 205 colon): > 100 µM
- GI50 (HCT-15 colon): 15.5 µM
- TGI (HCT-15 colon): > 100 µM
- GI50 (K-562 leukemia): 31.2 µM
- TGI (K-562 leukemia): > 100 µM
- GI50 (MDA-MB-231 breast): 19.1 µM
- TGI (MDA-MB-231 breast): > 100 µM
- GI50 (NCI-H522 lung): 23000 nM
- TGI (NCI-H522 lung): > 100 µM
- GI50 (PC-3 prostate): 29.5 µM
- TGI (PC-3 prostate): > 100 µM
- GI50 (SK-MEL-2 melanoma): 10600 nM
- TGI (SK-MEL-2 melanoma): 83.8 µM
- GI50 (SNB-75 CNS): 15 µM
- TGI (SNB-75 CNS): > 100 µM
- GI50 (T-47D breast): 32400 nM
- TGI (T-47D breast): > 100 µM

SMILES: COc1c(C(C)=O)c(OCCCCOc2c(C(C)=O)c(OC)c3ccoc3c2OC)c(OC)c2occc12
- GI50 (A498 renal): > 100 µM
- TGI (A498 renal): > 100 µM
- GI50 (COLO 205 colon): 4.35 µM
- TGI (COLO 205 colon): > 100 µM
- GI50 (HCT-15 colon): 3.88 µM
- TGI (HCT-15 colon): > 100 µM
- GI50 (K-562 leukemia): 5.45 µM
- TGI (K-562 leukemia): > 100 µM
- TGI (MDA-MB-231 breast): > 100 µM
- GI50 (NCI-H522 lung): 2630 nM
- TGI (NCI-H522 lung): > 100 µM
- GI50 (PC-3 prostate): 1.69 µM
- TGI (PC-3 prostate): > 20.6 µM
- GI50 (SK-MEL-2 melanoma): 2760 nM
- TGI (SK-MEL-2 melanoma): > 100 µM
- GI50 (SNB-75 CNS): 8.72 µM
- TGI (SNB-75 CNS): > 100 µM
- GI50 (T-47D breast): 2020 nM
- TGI (T-47D breast): > 26.4 µM

SMILES: CCCCNNC(=O)c1ccc(Br)cc1
- GI50 (A498 renal): 0.364 µM
- TGI (A498 renal): 3.41 µM
- GI50 (COLO 205 colon): 2.21 µM
- TGI (COLO 205 colon): 9.92 µM
- GI50 (HCT-15 colon): 6.87 µM
- TGI (HCT-15 colon): > 50 µM
- GI50 (K-562 leukemia): 2.02 µM
- TGI (K-562 leukemia): > 50 µM
- GI50 (MDA-MB-231 breast): 9.03 µM
- TGI (MDA-MB-231 breast): > 50 µM
- GI50 (NCI-H522 lung): 1270 nM
- TGI (NCI-H522 lung): > 22 µM
- GI50 (PC-3 prostate): 4.12 µM
- TGI (PC-3 prostate): > 50 µM
- GI50 (SK-MEL-2 melanoma): 1830 nM
- TGI (SK-MEL-2 melanoma): > 39.9 µM
- GI50 (SNB-75 CNS): 1.83 µM
- TGI (SNB-75 CNS): > 50 µM
- GI50 (T-47D breast): 1110 nM
- TGI (T-47D breast): 7.49 µM
